Data published in BindingDB's records for doi:10.1021/jm030871u (2003).
Residues, ends and D or L forms follow the SMILES beside them. *: point of attachment. X1 = CC(C)CCC[C@@H](C)[C@H]1CCC2C3CC=C4C[C@H](SC[C@@H]5CCN6CC[C@@H](CSCC(=O)*)NC6=N5)CC[C@]4(C)C3CC[C@@]21C; X2 = CC(C)(C)[Si](OCC1CCN2CCC(CSCC(=O)*)NC2=N1)(c1ccccc1)c1ccccc1; OBn = c1ccc(CO*)cc1; Bn = c1ccc(C*)cc1

Molecular target: Human immunodeficiency virus type 1 protease (Human immunodeficiency virus 1, UniProt Q72874)
Experiment: Competitive inhibition against HIV-1 Protease

Ki	SMILES
0.4 µM	CC(C)CCC[C@@H](C)[C@H]1CCC2C3CC=C4C[C@H](SC[C@@H]5CCN6CC[C@@H](CSCC(=O)NCC(=O)N[C@@H](C)C(=O)N[C@H](C(=O)N[C@@H](CC(C)C)C(=O)N[C@@H](CC(N)=O)C(=O)N[C@@H](Cc7ccccc7)C(=O)OCc7ccccc7)[C@@H](C)OCc7ccccc7)NC6=N5)CC[C@]4(C)C3CC[C@@]21C (some centres not stated) (X1-GAT(Bn)LNF-OBn)
6 µM	CC[C@H](C)[C@H](NC(=O)CNC(=O)CSCC1CCN2CCC(CO[Si](c3ccccc3)(c3ccccc3)C(C)(C)C)N=C2N1)C(=O)N[C@@H](CO)C(=O)N[C@@H](Cc1ccc(O)cc1)C(=O)N[C@@H](CC(N)=O)C(=O)N[C@@H](CC(C)C)C(=O)OC (some centres not stated) [Bicyclic Guanidinium Subunit] (X2-GISYNL-OMe)
